Measured values taken from the supplement of paper PMC12463676, “Small-molecule dissolution of stress granules by redox modulation benefits ALS models” (Nature Chemical Biology, 2025).

Key:
[1] = compound: NC(=O)CCCCC1CCSS1 [lipoamide]; assay: thermal stability z-score vs DMSO; higher = more thermally stabilized by treatment; conditions: HeLa, lipoamide concentration 100 µM
Method: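 Cellular thermal proteome profiling in HeLa cells. Cells were treated with 100 µM lipoamide for 1 h, with or without 1 mM arsenate for a further 1 h, then heated to ten temperatures (37-66.3 °C), and soluble protein was quantified by TMT mass spectrometry relative to 0.1% DMSO controls. The thermal stability score (sum of log2 fold changes minus the abundance score) was transformed to a z-score; mean of n = 3 experiments.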

[2] = compound: O=[As]([O-])(O)O.[K+] [potassium arsenate]; assay: as above; conditions: HeLa; arsenate concentration 1 mM
Method: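 Cellular thermal proteome profiling in HeLa cells treated with 1 mM arsenate for 1 h (DMSO pretreatment), heated to ten temperatures (37-66.3 °C). Soluble protein was quantified by TMT mass spectrometry relative to DMSO controls; the thermal stability score was transformed to a z-score; mean of n = 3 experiments.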

[3] = arsenate co-treatment: 1 mM arsenate 1 h
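Also: each temperature applied for 3 min, abundance score taken as mean log2 fold change at the two lowest temperatures, z-score obtained by mean subtraction and division by SD.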

Chain of UniProt Q9HD42 (Q9HD42 whole entry): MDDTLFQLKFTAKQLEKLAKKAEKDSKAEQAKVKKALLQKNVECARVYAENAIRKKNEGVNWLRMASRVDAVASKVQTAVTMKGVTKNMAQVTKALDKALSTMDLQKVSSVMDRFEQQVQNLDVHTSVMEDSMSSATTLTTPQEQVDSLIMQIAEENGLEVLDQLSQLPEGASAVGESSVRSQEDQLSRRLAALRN
Chain of UniProt O15270 (O15270 whole entry): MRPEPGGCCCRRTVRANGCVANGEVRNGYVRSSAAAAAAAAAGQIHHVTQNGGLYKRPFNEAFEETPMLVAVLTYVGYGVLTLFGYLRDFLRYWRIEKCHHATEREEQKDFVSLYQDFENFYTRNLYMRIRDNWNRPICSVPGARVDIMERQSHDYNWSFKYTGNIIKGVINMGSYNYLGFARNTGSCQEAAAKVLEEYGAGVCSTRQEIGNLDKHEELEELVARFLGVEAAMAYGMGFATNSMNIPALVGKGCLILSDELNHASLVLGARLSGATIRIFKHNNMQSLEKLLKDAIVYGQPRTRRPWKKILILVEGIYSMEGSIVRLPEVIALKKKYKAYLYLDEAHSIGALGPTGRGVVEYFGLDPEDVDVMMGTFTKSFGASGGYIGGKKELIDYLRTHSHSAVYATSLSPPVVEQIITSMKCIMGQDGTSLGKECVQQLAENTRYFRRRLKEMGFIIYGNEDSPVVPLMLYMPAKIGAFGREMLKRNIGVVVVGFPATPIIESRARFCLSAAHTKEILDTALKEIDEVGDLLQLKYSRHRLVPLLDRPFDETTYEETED
Chain of UniProt P41223 (P41223 whole entry): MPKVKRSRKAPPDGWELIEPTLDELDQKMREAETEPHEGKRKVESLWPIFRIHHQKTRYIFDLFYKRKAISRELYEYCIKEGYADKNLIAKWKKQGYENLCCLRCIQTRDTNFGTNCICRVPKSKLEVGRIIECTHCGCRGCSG
Chain of UniProt Q86U44 (Q86U44 whole entry): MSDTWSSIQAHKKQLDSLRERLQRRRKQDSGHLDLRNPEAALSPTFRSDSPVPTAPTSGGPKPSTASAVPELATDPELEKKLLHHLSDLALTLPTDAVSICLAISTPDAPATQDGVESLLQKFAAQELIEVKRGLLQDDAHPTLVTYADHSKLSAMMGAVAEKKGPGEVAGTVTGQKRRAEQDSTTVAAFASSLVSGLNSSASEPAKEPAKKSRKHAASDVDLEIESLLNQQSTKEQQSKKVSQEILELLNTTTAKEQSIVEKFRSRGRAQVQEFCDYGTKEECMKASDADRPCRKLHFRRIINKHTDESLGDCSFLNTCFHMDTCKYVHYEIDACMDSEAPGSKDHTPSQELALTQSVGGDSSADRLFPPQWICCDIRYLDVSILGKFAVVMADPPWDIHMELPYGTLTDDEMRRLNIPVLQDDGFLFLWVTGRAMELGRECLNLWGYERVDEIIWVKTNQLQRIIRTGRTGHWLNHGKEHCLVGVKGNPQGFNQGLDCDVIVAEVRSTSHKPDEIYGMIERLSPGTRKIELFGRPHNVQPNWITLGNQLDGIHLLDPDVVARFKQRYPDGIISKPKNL
Chain of UniProt Q9UKB3 (Q9UKB3 whole entry, looked up): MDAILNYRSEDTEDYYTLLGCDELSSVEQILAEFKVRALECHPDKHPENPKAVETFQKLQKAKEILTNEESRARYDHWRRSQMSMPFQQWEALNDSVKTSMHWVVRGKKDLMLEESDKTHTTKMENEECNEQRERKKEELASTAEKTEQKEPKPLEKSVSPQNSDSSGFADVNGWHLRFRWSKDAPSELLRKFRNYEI
Chain of UniProt Q96J42 (Q96J42 whole entry): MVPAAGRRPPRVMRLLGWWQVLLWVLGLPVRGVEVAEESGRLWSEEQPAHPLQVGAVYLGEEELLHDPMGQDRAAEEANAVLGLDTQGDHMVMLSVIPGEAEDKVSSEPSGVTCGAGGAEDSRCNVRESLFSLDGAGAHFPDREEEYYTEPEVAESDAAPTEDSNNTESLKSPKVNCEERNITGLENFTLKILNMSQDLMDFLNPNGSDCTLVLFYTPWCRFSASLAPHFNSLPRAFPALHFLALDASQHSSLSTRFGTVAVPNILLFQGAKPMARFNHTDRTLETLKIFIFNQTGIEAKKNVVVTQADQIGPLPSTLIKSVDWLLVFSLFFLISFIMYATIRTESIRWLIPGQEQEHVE
Chain of UniProt Q8N2K0 (Q8N2K0 whole entry): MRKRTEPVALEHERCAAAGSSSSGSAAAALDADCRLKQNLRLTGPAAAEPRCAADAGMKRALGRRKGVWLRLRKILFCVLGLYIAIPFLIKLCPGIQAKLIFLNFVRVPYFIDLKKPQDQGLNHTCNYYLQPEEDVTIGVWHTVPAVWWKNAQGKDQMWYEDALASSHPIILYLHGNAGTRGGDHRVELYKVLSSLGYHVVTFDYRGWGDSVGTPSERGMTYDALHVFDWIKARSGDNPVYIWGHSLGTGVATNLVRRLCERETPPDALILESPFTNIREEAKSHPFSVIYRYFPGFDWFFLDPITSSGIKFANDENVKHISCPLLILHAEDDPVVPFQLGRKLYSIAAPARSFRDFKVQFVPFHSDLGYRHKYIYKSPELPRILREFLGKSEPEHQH
Chain of UniProt O14579 (O14579 whole entry): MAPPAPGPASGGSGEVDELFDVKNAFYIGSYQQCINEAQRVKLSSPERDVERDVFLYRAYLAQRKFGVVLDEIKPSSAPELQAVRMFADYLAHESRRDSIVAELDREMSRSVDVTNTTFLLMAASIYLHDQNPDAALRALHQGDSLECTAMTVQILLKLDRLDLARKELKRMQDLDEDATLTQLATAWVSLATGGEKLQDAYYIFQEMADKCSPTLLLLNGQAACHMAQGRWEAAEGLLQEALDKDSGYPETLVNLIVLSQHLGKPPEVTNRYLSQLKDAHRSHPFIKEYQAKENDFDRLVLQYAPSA
Chain of UniProt Q9Y3A4 (Q9Y3A4 whole entry): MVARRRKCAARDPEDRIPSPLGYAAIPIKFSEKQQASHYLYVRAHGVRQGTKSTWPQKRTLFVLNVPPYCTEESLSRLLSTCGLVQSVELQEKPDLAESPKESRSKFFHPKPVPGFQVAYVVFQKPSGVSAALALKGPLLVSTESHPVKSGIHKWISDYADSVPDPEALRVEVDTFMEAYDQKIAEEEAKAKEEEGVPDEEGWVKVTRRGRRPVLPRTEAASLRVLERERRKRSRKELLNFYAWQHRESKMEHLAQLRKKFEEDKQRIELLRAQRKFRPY
Chain of UniProt Q04206 (Q04206 whole entry): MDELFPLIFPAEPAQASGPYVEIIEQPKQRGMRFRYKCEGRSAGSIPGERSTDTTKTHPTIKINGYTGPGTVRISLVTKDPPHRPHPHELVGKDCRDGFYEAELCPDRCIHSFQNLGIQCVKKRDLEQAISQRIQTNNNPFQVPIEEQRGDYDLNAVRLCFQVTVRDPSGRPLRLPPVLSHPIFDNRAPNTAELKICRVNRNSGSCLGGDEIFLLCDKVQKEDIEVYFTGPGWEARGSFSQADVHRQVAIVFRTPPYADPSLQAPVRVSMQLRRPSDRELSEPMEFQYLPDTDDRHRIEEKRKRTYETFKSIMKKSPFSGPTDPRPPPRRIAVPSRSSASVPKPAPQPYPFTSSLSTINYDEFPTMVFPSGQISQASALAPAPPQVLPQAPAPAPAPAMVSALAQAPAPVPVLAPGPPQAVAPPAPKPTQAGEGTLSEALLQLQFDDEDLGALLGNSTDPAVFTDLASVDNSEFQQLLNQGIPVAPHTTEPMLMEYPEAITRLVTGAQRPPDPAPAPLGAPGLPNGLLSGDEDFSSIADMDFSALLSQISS
Chain of UniProt P45973 (P45973 whole entry): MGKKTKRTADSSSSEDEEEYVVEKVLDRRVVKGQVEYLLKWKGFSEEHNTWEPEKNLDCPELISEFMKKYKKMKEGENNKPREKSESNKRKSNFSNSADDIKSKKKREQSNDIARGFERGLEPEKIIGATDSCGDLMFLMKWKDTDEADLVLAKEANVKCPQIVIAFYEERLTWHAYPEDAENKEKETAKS
Chain of UniProt P30086 (P30086 whole entry, looked up): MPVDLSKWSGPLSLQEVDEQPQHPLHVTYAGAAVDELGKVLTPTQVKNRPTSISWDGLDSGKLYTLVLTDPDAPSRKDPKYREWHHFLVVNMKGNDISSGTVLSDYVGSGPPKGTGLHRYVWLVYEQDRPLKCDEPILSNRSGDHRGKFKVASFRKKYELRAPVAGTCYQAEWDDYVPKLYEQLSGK
Chain of UniProt P63010 (P63010 whole entry): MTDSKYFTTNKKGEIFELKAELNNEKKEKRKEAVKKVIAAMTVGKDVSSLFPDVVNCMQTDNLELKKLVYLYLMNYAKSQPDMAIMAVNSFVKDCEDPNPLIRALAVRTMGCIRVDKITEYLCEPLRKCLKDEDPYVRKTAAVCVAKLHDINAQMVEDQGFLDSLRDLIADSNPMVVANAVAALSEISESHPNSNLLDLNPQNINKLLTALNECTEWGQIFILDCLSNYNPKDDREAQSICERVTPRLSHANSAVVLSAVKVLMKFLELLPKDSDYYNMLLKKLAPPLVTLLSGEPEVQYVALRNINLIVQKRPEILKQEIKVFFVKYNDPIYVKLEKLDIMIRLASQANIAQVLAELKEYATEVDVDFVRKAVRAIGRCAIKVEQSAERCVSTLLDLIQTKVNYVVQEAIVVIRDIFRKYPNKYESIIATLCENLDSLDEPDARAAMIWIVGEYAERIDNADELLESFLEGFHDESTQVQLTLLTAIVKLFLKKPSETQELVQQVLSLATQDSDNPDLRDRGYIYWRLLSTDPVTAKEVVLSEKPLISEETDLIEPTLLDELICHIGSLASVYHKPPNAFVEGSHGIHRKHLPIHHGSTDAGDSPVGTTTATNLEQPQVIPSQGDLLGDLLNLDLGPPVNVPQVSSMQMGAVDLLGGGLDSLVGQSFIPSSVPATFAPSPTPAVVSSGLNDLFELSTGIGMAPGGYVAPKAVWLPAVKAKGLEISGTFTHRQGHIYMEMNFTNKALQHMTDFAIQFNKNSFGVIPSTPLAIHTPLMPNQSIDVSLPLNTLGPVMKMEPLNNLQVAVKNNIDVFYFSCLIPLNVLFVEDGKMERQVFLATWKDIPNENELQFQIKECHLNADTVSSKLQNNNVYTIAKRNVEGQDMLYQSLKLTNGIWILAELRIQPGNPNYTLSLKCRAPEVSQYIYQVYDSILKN

| Target | thermal stability z-score [1, 3] | thermal stability z-score ([1]; arsenate co-treatment: none) | thermal stability z-score [2] |
| --- | --- | --- | --- |
| FBXO45 (UniProt P0C2W1) | 0.369 | 0.292 | 0.229 |
| CLIC1 (UniProt O00299) | 0.85 | 0.348 | -0.144 |
| METTL3 (UniProt Q86U44) | -0.16 | 0.0119 | 0.165 |
| DST (UniProt Q03001) | 0.0624 | -0.113 | -0.103 |
| ARL3 (UniProt P36405) | -0.325 | -0.435 | -0.424 |
| GLUD1 (UniProt P00367) | -1.37 | -0.412 | -0.578 |
| NPC2 (UniProt P61916) | 0.0993 | 0.738 | -0.391 |
| TACC1 (UniProt O75410) | 0.293 | 0.0761 | 0.526 |
| TNFRSF10A (UniProt O00220) | -1.82 | -1.91 | -1.65 |
| TBC1D22A (UniProt Q8WUA7) | -1.16 | -0.15 | -1.19 |
| DNAJC21 (UniProt Q5F1R6) | -0.615 | -0.205 | 0.00418 |
| BUD31 (UniProt P41223) | 0.0866 | 0.568 | -3.38 |
| CAPZB (UniProt P47756) | -0.059 | 0.144 | 0.454 |
| DENND4C (UniProt Q5VZ89) | 0.201 | 0.677 | 0.337 |
| PSMB4 (UniProt P28070) | 0.411 | 0.72 | 0.545 |
| ZAK (UniProt Q9NYL2) | -0.237 | -0.237 | -0.105 |
| PSPH (UniProt P78330) | 0.359 | 0.393 | 0.056 |
| SCD (UniProt O00767) | -1.45 | -2.34 | 1.66 |
| PEF1 (UniProt Q9UBV8) | 0.534 | 0.979 | 0.494 |
| SAFB (UniProt Q15424) | 2.61 | 0.651 | 0.0324 |
| ABHD11 (UniProt Q8NFV4) | 0.183 | 0.151 | 0.254 |
| MRPL4 (UniProt Q9BYD3) | -0.319 | -0.59 | -0.138 |
| TP53RK (UniProt Q96S44) | 0.0309 | -0.743 | -0.367 |
| NOMO2 (UniProt Q5JPE7) | -3.91 | -3.99 | 0.407 |
| CYB561A3 (UniProt Q8NBI2) | -0.299 | -0.521 | -0.949 |
| AP2B1 (UniProt P63010) | -0.153 | -0.596 | -0.216 |
| PEBP1 (UniProt P30086) | 0.203 | 0.0137 | -0.433 |
| UBE2L3 (UniProt P68036) | 0.00366 | -0.189 | -0.555 |

| Target | thermal stability z-score [1, 3] | thermal stability z-score ([1]; arsenate co-treatment: none) | thermal stability z-score [2] |
| --- | --- | --- | --- |
| URGCP (UniProt Q8TCY9) | 0.532 | 0.322 | 1.12 |
| SRXN1 (UniProt Q9BYN0) | 0.0621 | -0.041 | 0.115 |
| RRP7A (UniProt Q9Y3A4) | 0.108 | -0.213 | -0.216 |
| TRIM28 (UniProt Q13263) | -0.138 | 0.0166 | -1.49 |
| C2CD2 (UniProt Q9Y426) | -0.506 | 0.109 | 0.234 |
| VCPIP1 (UniProt Q96JH7) | -0.216 | -0.156 | -0.233 |
| ATXN2L (UniProt Q8WWM7) | 0.44 | 0.347 | -0.118 |
| RALY (UniProt Q9UKM9) | 0.0855 | -0.0305 | 0.00385 |
| ELP6 (UniProt Q0PNE2) | 0.56 | -0.141 | 0.998 |
| RAC1 (UniProt P63000) | 0.154 | -0.0299 | 0.562 |
| ABHD12 (UniProt Q8N2K0) | -0.435 | -0.517 | -0.351 |
| TKT (UniProt P29401) | 0.488 | 0.386 | -0.045 |
| COPE (UniProt O14579) | 0.165 | 0.681 | 0.0279 |
| DNAJC12 (UniProt Q9UKB3) | -0.279 | -0.182 | -0.108 |
| SPTLC2 (UniProt O15270) | -0.0734 | -0.585 | -0.25 |
| CHMP1A (UniProt Q9HD42) | 0.125 | 0.254 | 0.38 |
| SUN2 (UniProt Q9UH99) | -1.43 | -1.36 | -0.0506 |
| TXNDC15 (UniProt Q96J42) | -1.92 | -0.609 | 1.16 |
| CBX5 (UniProt P45973) | -0.00136 | 0.383 | -0.0201 |
| FUS (UniProt P35637) | 0.844 | 1.27 | 0.635 |
| MDC1 (UniProt Q14676) | 0.374 | 0.00253 | -0.363 |
| FLNC (UniProt Q14315) | 0.266 | 0.657 | 0.567 |
| UNC13D (UniProt Q70J99) | -0.15 | -0.154 | -0.283 |
| GPR107 (UniProt Q5VW38) | -0.0315 | 0.243 | 0.169 |
| PRMT5 (UniProt O14744) | 0.459 | 0.231 | -0.408 |
| RELA (UniProt Q04206) | 0.384 | 0.867 | 0.374 |
| NEDD1 (UniProt Q8NHV4) | 0.124 | 0.153 | 0.216 |
